# Results reported in US20160367515A1, “Improved delivery of poorly water soluble drugs with aphafetoprotein stabilized with metal ions” (Oy Safemed Ltd., priority 2013, published 2016).
# Key:
# rat glioma C6 = assay: MTS cell viability assay, rat glioma C6 cells; format: cell-based; conditions: C6, 48 h, compositions of paclitaxel with rhAFP or Zn-rhAFP
# Experimental: Tumor cell lines: human mammary carcinoma MCF-7, human hepatoma HepG2, and rat glioma C6—were originated from the American Type Culture Collection (ATCC). All cell lines were maintained in the complete DMEM or RPMI-1640 media supplemented with L-glutamine and 10% fetal calf serum (FCS) in humidified 5% CO2 atmosphere. For a passage, adherent cells were incubated in the EDTA/0.25% trypsin solution, then washed and plated out for experiments. Prior to addition of reagents, cells were washed with the fresh media with 2% FCS, plated onto 96-well polystyrene plates (Costar, USA) at a density of 3×10^3 cell/well in 180 μL of complete medium with 2% FCS and incubated for 2 h. […] Cell proliferation was assessed by [^3H]-thymidine (^3H-TdR) incorporation assay. […] Cells were harvested and the ^3H-TdR incorporation was measured by using the liquid scintillation counter LKB 1209 Rackbeta (LKB, Sweden). Results were expressed as mean counts per minute (cpm)±standard error of the mean of triplicate cultures or as a percentage of ^3H-TdR incorporation in the experimental cell cultures relatively to the untreated control, as described (Semenkova et al., Tumour Biol. 1997; 18: 261-74).
# Cell viability was assessed by the Promega CellTiter 96 AQueous Non-Radioactive Cell Proliferation MTS assay (Promega, USA) according to manufacturer's instructions. […]
# [1] = system: breast cancer cells MCF-7; assay: Microscopic evaluation (DAPI, cell count by ImageJ) of viability and apoptosis of MCF-7 cells; format: cell-based, human; conditions: MCF-7, 48 h
# Experimental: Concentrations of the compounds were: rhAFP: 3.0 μM, Ptx: 10 μM. Incubation time was 48 h. Patterns on the top (A): magnification ×100; bottom (B): magnification ×400. Cell nuclei were stained with DAPI and visualized with a fluorescent microscope Axioplan, Zeiss equipped with corresponding color filter kits. Apoptotic nuclei at s panel B are shown by arrows. […] Total number of cells in the control wells was taken as 100%. The average data for five wells±mean square deviation are shown.
# rhAFP/Ptx equimolar complex was also tested for its growth suppressive activity against tumor cells in vitro. […] Apoptotic cells with condensed chromatin due to rhAFP/Ptx treatments are shown at FIG. 3B with arrows.
# MCF-7 cells were seeded onto the microscopic plates Lab-Tek™ Chamber Slides (Thermo Fisher Scientific-Nunc, Germany) for 48 h to reach of 80% confluence and thereafter were subjected to 48-h treatments with Ptx dissolved in DMSO (10 nM), Zn-rhAFP (1.4 μM), or their combination Zn-rhAFP/Ptx (1.4 μM/10 nM). Similarly, the tests had been performed with non-glycosylated rhAFPo species. Thereafter the cells were fixed with 100% ice-cold acetone and stained with DAPI (Molecular probes, USA). Control cells were incubated without additions. […] The quantity of the cells in the various experimental wells in the selected fields of view was assessed by using ImageJ software. […]
structure (smiles),measurement,setting,value
"CC(=O)O[C@H]1C(=O)[C@@]2(C)[C@H]([C@H](OC(=O)c3ccccc3)[C@]3(O)C[C@H](OC(=O)[C@H](O)[C@@H](NC(=O)c4ccccc4)c4ccccc4)C(C)=C1C3(C)C)[C@]1(OC(C)=O)CO[C@@H]1C[C@@H]2O [Ptx, paclitaxel]",IC50,rat glioma C6,2500 nM
same,viable cell count,"[1]; FIG. 3: rhAFP 3.0 μM, Ptx 10 μM",54 % of control
same,cell death,"[1]; Ptx 10 nM, Zn-rhAFP 1.4 μM",55%
